Earlier results, collected in patent US20140128375A1, “B[…] AS CGRP RECEPTOR ANTAGONISTS” (priority 2006, published 2014).

Tested on: CGRP
Details: marmoset, electrical stimulation of the trigeminal ganglion

For `NCCCC[C@H](NC(=O)[C@@H](Cc1cc(Br)c(O)c(Br)c1)NC(=O)N1CCC(N2Cc3ccccc3NC2=O)CC1)C(=O)N1CCN(c2ccncc2)CC1` [BIBN4096BS], the “effect on increase in facial blood flow” value is given as “could be blocked”.
